Molecular target: Carbonic anhydrase 9 (Homo sapiens, UniProt Q16790)
Experiment: Inhibition of recombinant human carbonic anhydrase 9 by stopped-flow CO2 hydration assay

| SMILES | Ki [nM] |
| --- | --- |
| NS(=O)(=O)c1ccc(CNC(=O)CN2CCN(C(c3ccc(F)cc3)c3ccc(F)cc3)CC2)cc1 | 2440 |
| NS(=O)(=O)c1ccc(CNC(=O)CCN2CCN(C(=O)OCc3ccccc3)CC2)cc1 | 257 |
| NS(=O)(=O)c1ccc(CNC(=O)CN2CCN(c3ccccc3)CC2)cc1 | 396 |
| NS(=O)(=O)c1ccc(CNC(=O)CN2CCN(Cc3ccc4c(c3)OCO4)CC2)cc1 | 1600 |
| Cc1ccc(N2CCN(CC(=O)NCc3ccc(S(N)(=O)=O)cc3)CC2)cc1 | 1530 |
| NS(=O)(=O)c1ccc(CNC(=O)CN2CCN(c3ccc(Cl)cc3)CC2)cc1 | 1200 |
| NS(=O)(=O)c1ccc(CNC(=O)CN2CCN(c3ccccn3)CC2)cc1 | 1560 |

These reach a lower Ki. Values come first.

| Ki [nM] | SMILES |
| --- | --- |
| 98 | NS(=O)(=O)c1ccc(CNC(=O)CCN2CCN(C(c3ccc(F)cc3)c3ccc(F)cc3)CC2)cc1 |
| 228 | NS(=O)(=O)c1ccc(CNC(=O)CN2CCN(c3ccc(F)cc3)CC2)cc1 |
| 23.7 | NS(=O)(=O)c1ccc(CNC(=O)CCN2CCN(c3ccccc3)CC2)cc1 |
| 162 | NS(=O)(=O)c1ccc(CNC(=O)CCN2CCN(c3ccccn3)CC2)cc1 |
| 116 | NS(=O)(=O)c1ccc(CNC(=O)CCN2CCN(Cc3ccccc3)CC2)cc1 |
| 117 | NS(=O)(=O)c1ccc(CNC(=O)CCN2CCN(c3ccc(Cl)cc3)CC2)cc1 |

Reference: ChEMBL document CHEMBL4680105, “Discovery of Benzenesulfonamide Derivatives as Carbonic Anhydrase Inhibitors with Effective Anticonvulsant Action: Design, Synthesis, and Pharmacological Evaluation” (J Med Chem, 2018)
